{"source": "ChEMBL document CHEMBL1201862", "about": "“PubChem BioAssay data set” (2004)", "key": {"INS1": {"system": "INS1", "assay": "beta cell apoptosis inhibitors, cytokine rescue, dose response, luminescence, retest (AID 449756);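 further: cell death triggered by IL-1 beta plus TNF-alpha plus IFN-gamma mixture; protective hits raise ATP signal compared with cytokine alone wells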", "type": "functional, cell-based", "conditions": "Rattus norvegicus"}, "[1]": {"assay": "cytotoxicity toward NIH3T3 fibroblasts, dose response, counter-screen, cell-based, ATP luminescence, mouse fibroblasts (AID 2010);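 further: cells exposed to compound for about 90 hours before reading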", "type": "functional"}, "[2]": {"target": "T1, Replicative DNA helicase DnaB (Mycobacterium tuberculosis, UniProt P9WMR3)", "T1 sequence (P9WMR3 whole entry)": "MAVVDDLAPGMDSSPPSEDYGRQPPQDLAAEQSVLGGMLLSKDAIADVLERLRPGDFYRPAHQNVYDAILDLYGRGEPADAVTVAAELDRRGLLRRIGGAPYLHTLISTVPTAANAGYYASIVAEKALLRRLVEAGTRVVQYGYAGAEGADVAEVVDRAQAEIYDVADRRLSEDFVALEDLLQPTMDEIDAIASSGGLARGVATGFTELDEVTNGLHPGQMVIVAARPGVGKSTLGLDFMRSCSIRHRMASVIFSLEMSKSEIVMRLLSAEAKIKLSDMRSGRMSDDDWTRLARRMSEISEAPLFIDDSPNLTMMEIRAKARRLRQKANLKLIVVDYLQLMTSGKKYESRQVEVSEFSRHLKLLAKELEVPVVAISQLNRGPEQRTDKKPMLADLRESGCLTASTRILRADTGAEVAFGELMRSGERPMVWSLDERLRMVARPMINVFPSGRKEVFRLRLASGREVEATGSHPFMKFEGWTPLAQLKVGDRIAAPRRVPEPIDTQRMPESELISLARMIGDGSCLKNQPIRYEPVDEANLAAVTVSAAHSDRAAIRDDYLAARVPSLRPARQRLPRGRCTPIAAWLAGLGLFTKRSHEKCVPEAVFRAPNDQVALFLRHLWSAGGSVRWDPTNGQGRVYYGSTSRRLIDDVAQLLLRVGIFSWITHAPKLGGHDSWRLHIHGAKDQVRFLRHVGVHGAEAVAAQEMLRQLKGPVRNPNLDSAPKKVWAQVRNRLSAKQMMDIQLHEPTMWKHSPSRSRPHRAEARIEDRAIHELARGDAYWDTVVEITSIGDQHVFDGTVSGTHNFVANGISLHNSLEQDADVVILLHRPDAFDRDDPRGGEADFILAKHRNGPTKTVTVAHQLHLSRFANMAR", "assay": "DnaB intein splicing inhibitors, dose response, biochemical, cell-free fluorescence (AID 449749)", "type": "functional"}, "Genome polyprotein": {"target": "Genome polyprotein (dengue virus type 2, UniProt P29990)", "sequence (P29990 2492-3391 limits assumed)": "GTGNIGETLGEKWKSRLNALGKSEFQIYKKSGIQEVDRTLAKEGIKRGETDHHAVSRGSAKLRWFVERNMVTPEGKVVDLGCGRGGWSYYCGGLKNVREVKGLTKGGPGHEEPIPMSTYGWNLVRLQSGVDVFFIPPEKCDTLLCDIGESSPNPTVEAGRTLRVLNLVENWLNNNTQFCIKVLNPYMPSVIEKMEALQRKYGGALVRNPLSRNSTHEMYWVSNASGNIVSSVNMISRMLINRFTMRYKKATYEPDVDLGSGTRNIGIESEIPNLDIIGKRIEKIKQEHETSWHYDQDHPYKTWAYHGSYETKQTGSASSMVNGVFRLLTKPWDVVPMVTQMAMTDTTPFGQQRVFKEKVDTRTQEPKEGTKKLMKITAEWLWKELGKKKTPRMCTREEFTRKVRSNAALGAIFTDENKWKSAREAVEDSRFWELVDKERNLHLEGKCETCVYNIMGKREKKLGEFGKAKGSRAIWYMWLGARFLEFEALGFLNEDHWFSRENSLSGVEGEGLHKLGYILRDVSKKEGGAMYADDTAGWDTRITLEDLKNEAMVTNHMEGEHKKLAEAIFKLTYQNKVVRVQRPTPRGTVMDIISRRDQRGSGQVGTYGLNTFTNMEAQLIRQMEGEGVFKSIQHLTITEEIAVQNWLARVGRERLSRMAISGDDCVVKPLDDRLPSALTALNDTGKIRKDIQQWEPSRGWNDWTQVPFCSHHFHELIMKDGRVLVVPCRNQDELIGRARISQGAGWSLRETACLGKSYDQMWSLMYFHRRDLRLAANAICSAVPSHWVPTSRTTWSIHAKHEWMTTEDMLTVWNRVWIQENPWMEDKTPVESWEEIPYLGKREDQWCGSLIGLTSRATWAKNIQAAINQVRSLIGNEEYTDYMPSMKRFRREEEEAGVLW", "assay": "Dengue-2 NS5 methyltransferase inhibitors, primary screen, biochemical, confirmation dose response (AID 588689)", "type": "functional"}, "[3]": {"assay": "HepG2 cell cytotoxicity, dose response, cytotoxicity control for non-replicating M. tuberculosis project (AID 489018)", "type": "functional", "conditions": "Mycobacterium tuberculosis"}, "[4]": {"target": "Induced myeloid leukemia cell differentiation protein Mcl-1 (Homo sapiens, UniProt Q07820)", "sequence (Q07820 whole entry)": "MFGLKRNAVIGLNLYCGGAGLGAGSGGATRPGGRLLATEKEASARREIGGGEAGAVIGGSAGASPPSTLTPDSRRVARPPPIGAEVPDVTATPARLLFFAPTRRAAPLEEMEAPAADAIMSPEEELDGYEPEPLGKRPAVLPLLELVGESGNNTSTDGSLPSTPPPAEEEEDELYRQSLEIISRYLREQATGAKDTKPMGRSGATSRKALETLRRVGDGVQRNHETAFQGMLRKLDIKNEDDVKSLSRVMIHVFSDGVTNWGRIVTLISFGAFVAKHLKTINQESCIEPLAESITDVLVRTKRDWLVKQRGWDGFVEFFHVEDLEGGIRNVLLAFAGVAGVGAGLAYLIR", "type": "functional"}, "Caspase-6": {"target": "T2, Caspase-6 (Homo sapiens, UniProt P55212)", "T2 sequence (P55212 whole entry)": "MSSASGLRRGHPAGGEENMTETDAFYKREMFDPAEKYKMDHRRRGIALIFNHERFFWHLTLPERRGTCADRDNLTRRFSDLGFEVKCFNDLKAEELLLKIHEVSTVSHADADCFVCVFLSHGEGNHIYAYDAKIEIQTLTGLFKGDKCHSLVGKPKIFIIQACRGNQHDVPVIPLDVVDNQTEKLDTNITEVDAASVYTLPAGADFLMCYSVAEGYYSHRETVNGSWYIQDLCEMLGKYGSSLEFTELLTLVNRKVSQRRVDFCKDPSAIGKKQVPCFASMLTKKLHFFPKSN", "assay": "human caspase-6 inhibitors, dose response, biochemical, VEID-R110 fluorescence, cherry-pick (AID 720632)"}, "BJ [5]": {"system": "BJ", "assay": "cytotoxicity toward BJ-TERT fibroblasts, dose response, cell-based, RAS-independent, luminescence (AID 1933)", "type": "functional", "conditions": "Homo sapiens"}, "BJ [6]": {"system": "BJ", "assay": "cells", "type": "functional, cell-based", "conditions": "Homo sapiens"}, "[7]": {"target": "1-phosphatidylinositol 4,5-bisphosphate phosphodiesterase gamma-1 (Homo sapiens, UniProt P19174)", "sequence (P19174 whole entry)": "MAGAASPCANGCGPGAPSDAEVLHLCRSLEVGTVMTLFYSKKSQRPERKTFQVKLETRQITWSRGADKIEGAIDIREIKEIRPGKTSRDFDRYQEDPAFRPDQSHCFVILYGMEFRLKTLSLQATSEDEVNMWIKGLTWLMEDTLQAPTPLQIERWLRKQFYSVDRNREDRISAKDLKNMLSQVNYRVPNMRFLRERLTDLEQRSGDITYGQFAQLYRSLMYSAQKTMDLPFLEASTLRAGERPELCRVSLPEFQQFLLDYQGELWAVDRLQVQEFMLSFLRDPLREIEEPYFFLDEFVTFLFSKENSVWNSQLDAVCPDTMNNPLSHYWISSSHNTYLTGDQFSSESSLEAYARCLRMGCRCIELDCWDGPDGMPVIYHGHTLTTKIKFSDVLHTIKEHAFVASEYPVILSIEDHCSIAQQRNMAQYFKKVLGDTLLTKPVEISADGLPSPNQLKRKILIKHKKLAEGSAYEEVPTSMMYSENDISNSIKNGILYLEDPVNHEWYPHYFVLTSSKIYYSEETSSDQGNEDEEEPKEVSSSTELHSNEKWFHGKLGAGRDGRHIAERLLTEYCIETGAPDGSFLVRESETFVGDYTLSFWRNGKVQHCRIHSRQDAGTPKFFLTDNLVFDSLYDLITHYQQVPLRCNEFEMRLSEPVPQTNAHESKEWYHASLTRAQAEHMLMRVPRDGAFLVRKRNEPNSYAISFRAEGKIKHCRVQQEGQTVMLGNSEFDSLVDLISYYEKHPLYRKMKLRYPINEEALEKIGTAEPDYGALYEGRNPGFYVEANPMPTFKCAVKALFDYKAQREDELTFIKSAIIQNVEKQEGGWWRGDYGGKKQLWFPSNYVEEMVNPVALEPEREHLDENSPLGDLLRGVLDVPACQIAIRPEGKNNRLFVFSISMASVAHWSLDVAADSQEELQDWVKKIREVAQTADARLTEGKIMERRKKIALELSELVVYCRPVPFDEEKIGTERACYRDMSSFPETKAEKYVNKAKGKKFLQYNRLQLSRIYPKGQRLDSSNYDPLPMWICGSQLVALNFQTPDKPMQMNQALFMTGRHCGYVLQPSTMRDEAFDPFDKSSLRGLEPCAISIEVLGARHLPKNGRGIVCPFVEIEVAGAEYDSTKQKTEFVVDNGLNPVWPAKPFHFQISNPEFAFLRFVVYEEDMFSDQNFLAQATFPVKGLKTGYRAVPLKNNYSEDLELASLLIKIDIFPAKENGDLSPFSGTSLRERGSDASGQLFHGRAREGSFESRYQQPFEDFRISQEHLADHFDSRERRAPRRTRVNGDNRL", "assay": "Counterscreen for inhibitors of phospholipase C isozymes (PLC-B3): Fluorescence-based biochemical high throughput dose response assay to identify inhibitors of phospholipase C isozymes (PLC-gamma1)."}}, "note": "Activity calls are given as the source filed them.", "data": [{"smiles": "CCCC(=O)NC(c1ccccc1OC)c1ccc2cccnc2c1O", "note": "(stereo not drawn)", "values": [{"measurement": "AC50", "setting": "INS1", "value": "1.14 µM (active)"}, {"measurement": "EC50", "setting": "[1]", "value": "1.55 µM (active)"}]}, {"smiles": "COC(CNC(=O)c1ccc2c3c(onc13)-c1ccccc1C2=O)OC", "values": [{"measurement": "AC50", "setting": "[2]", "value": "3.06 µM (active)"}, {"measurement": "IC50", "setting": "Genome polyprotein", "value": "4.67 µM (active)"}, {"measurement": "CC50", "setting": "[3]", "value": "15.1 µM (active)"}]}, {"smiles": "COc1cc(-c2ccc(Nc3ccccc3C(=O)O)c(OC)c2)ccc1Nc1ccccc1C(=O)O", "values": [{"measurement": "IC50", "setting": "Genome polyprotein", "value": "18.8 µM (active)"}, {"measurement": "IC50", "setting": "[4]", "value": "1.52 µM (active)"}, {"measurement": "AC50", "setting": "Caspase-6", "value": "4.6 µM (active)"}]}, {"smiles": "Nc1ccc2c(c1)C(=O)C(=O)c1ccccc1-2", "values": [{"measurement": "AC50", "setting": "INS1", "value": "1.06 µM (active)"}, {"measurement": "AC50", "setting": "[2]", "value": "5.32 µM (active)"}, {"measurement": "EC50", "setting": "BJ [5]", "value": "2.58 µM (inconclusive)"}, {"measurement": "EC50", "setting": "BJ [6]", "value": "4.11 µM (active)"}, {"measurement": "IC50", "setting": "[7]", "value": "5.14 µM (active)"}, {"measurement": "CC50", "setting": "[3]", "value": "7.59 µM (active)"}]}, {"smiles": "O=C(O)c1ccc(NC2=C/C(=N/S(=O)(=O)c3ccccc3)c3ccccc3C2=O)cc1", "values": [{"measurement": "IC50", "setting": "Genome polyprotein", "value": "17.1 µM (active)"}, {"measurement": "IC50", "setting": "[4]", "value": "1.65 µM (active)"}, {"measurement": "IC50", "setting": "[7]", "value": "45.5 µM (inactive)"}]}, {"smiles": "COC(=O)[C@@H]1[C@@H](C(=O)OC)C2(c3ccccc3-c3ccccc32)N(c2ccc(Cl)cc2)N1C#N", "values": [{"measurement": "AC50", "setting": "[2]", "value": "> 120 µM (inactive)"}, {"measurement": "EC50", "setting": "BJ [5]", "value": "2.87 µM (inconclusive)"}, {"measurement": "EC50", "setting": "BJ [6]", "value": "6.23 µM (active)"}, {"measurement": "EC50", "setting": "[1]", "value": "6.87 µM (active)"}]}, {"smiles": "COc1ccc(OC)c(Nc2cc3ccccc3c(O)n2)c1", "values": [{"measurement": "AC50", "setting": "[2]", "value": "> 120 µM (inconclusive)"}, {"measurement": "AC50", "setting": "Caspase-6", "value": "2.44 µM (active)"}]}]}
